Reference: patent publication US20250057819A1, “DRUG COMBINATIONS FOR INHIBITING CORONAVIRUS REPLICATION” (priority 2021, published 2025)
Structures can show the parent of a compound that is named as a salt. Where two headings read alike, the source gives them in different places.

Assays:
Huh7.5 cells = experiment: Cell viability assay (MTT) in Huh7.5 cells; type: cell-based, human; details: Huh7.5 (B), read-out: SARS-CoV-2 CC50
Protocol: (§1) Cell viability was monitored by a mitochondrial activity test using methyl-thiazolyl-tetrazolium (MTT, Sigma). After 48 hours of drug treatment, cells were treated with 1 mg/ml of MTT during 3 hours at 37° C. The supernatants were removed and the MTT crystals were dissolved using DMSO and a shaker. The absorbance was read with a Tecan Spark at 570 nm with reference at 650 nm.
(§2) Only the most promising molecules or those studied in synergy were tested in Calu3 cells.

SARS-CoV-2 [1] = experiment: microbe, parasite or virus in culture; type: cell-based; details: read-out: SARS-CoV-2 EC50
Calu3 cells = experiment: Cell viability assay (MTT) in Calu3 cells; type: cell-based, Human; details: Calu3 (C), read-out: SARS-CoV-2 CC50
Protocol: as §1, §2

SARS-CoV-2 [2] = experiment: Drug tests in SARS-CoV-2 model, Calu3 cells, viral titration by plaque assay in Vero E6; details: read-out: SARS-CoV-2 EC50; Calu3 (C), MOI 0.05, 48 h treatment
Covid-19 = details: adults hospitalized with Covid-19 (ref. 17); cited from earlier work
SARS-CoV-2 [3] = details: reports from in vitro studies (ref. 16); cited from earlier work
[4] = Cell viability assay (MTT) in Huh7.5 cells; type: cell-based, human; details: human, Huh7.5 cells, Huh7.5 (B), read-out: SARS-CoV-2 CC50
Protocol: as §1, §2

[5] = Cell viability assay (MTT) in HRT-18 cells; details: human, CC50 (μM)
[6] = Cell viability assay (MTT) in Calu3 cells; type: cell-based, Human; details: human, Calu3 cells, Calu3 (C), read-out: SARS-CoV-2 CC50
Protocol: as §1, §2

rHCoVs-OC43 = experiment: microbe, parasite or virus in culture; type: cell-based; details: for IC50: drug 2 alone (fast synergy screening table), read-out: IC50; for EC50: drug alone, HRT-18 cells, MOI 0.025, 48 h treatment, decrease of Rluc, read-out: EC50
HRT-18 cells = experiment: Cell viability assay (MTT) in HRT-18 cells
[7] = drug 2 alone (fast synergy screening table)
[8] = drug alone, HRT-18 cells, 48 h treatment, MTT
[9] = Severe acute respiratory syndrome coronavirus 2, Huh7.5, 48 h

CC(C)C(=O)OC[C@H]1O[C@@H](n2cc/c(=N\O)[nH]c2=O)[C@H](O)[C@@H]1O [Molnupinavir]
CC50 (Huh7.5 cells): > 10000 nM | EC50 (SARS-CoV-2 [1]): 84 nM | CC50 (Calu3 cells): > 10000 nM | EC50 (SARS-CoV-2 [2]): 35 nM

Cc1cccc(C)c1OCC(=O)N[C@@H](Cc1ccccc1)[C@@H](O)C[C@H](Cc1ccccc1)NC(=O)[C@H](C(C)C)N1CCCNC1=O [Lopinavir]
clinical benefit (Covid-19): no benefit was observed | EC50 (SARS-CoV-2 [3]): 26000 nM

Cc1c(O)cccc1C(=O)N[C@@H](CSc1ccccc1)[C@H](O)CN1C[C@H]2CCCC[C@H]2C[C@H]1C(=O)NC(C)(C)C [Nelfinavir mesylate]
CC50 at 48 h [4]: > 10000 nM | CC50 at 48 h [5, 7]: > 10 µM | CC50 at 48 h [5, 8]: > 10 µM | EC50 (SARS-CoV-2 [1]; [9]): 1700 nM | CC50 at 48 h [6]: > 10000 nM | EC50 (SARS-CoV-2 [2]): 110 nM | IC50 (rHCoVs-OC43; 48 h): 2600 nM | IC50 (rHCoVs-OC43): 2600 nM | EC50 (rHCoVs-OC43): 2600 nM

COc1c(C)c2c(c(O)c1C/C=C(\C)CCC(=O)OCCN1CCOCC1)C(=O)OC2 [Mycophenolate mofetil]
CC50 (Huh7.5 cells): 9100 nM | CC50 (HRT-18 cells; [7]): > 10000 nM | CC50 (HRT-18 cells; [8]): > 10000 nM | EC50 (SARS-CoV-2 [1]): 1180 nM | IC50 (rHCoVs-OC43): 180 nM | EC50 (rHCoVs-OC43): 180 nM

CCC(CC)COC(=O)[C@H](C)N[P@](=O)(OC[C@H]1O[C@@](C#N)(c2ccc3c(N)ncnn23)[C@H](O)[C@@H]1O)Oc1ccccc1 [Remdesivir]
CC50 at 48 h [4]: > 10000 nM | CC50 at 48 h [5, 7]: 2.5 µM | CC50 at 48 h [5, 8]: 2.5 µM | EC50 (SARS-CoV-2 [1]; [9]): ≤ 1 nM | CC50 at 48 h [6]: > 10000 nM | EC50 (SARS-CoV-2 [2]): 4 nM | IC50 (rHCoVs-OC43; 48 h): 34 nM | IC50 (rHCoVs-OC43): 34 nM | EC50 (rHCoVs-OC43): 34 nM
